Data reported in patent publication US20040142317A1, “Use of amino acid transporter atbo,+ as a delivery system for drugs and prodrugs” (priority 2003, published 2004).
Several values for one entry are separate records, joined by “and”; a condition that tells them apart may be missing. Identical values can stand only once.

Tests used:
mouse ATB^0,+ [1] = target: T1, mouse ATB^0,+ (Mus musculus, UniProt Q9JMA9); assay: Inhibition of ATB0,+-specific [3H]-L-NNA transport by amino acids in HRPE cells; format: cell-based; settings: amino acids 5 mM; [3H]-L-NNA 10 μM
T1 sequence (Q9JMA9 1-638): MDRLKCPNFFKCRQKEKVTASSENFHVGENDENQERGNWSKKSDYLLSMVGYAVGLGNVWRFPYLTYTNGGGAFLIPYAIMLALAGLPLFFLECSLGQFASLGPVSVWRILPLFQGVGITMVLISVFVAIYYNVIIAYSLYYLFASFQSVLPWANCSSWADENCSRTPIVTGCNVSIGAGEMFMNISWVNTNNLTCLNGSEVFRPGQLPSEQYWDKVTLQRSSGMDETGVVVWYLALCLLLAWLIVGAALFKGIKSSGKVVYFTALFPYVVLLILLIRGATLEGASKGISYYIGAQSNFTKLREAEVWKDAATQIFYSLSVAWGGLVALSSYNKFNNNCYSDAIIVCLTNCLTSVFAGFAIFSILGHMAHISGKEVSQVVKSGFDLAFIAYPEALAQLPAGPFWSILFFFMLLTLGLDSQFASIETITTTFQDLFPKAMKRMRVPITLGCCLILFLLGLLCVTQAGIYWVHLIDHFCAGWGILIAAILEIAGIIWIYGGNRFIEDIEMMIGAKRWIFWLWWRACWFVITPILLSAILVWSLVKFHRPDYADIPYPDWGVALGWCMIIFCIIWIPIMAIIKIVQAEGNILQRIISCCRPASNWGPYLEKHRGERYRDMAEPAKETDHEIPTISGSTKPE

mouse ATB^0,+ [2] = target: T1, mouse ATB^0,+; settings: for Current in X. laevis oocytes (nA), L-isomer: L-amino acid 1 mM; for Current in X. laevis oocytes (nA), L-isomer / Current in X. laevis oocytes (nA), D-isomer: NaCl pH 7.5; for inward current in the absence of Cl− (sodium gluconate) / inward current in the absence of Na+ (NMDG chloride) / Current in X. laevis oocytes: compound 1 mM; for Current in X. laevis oocytes: NaCl medium pH 7.5, voltage clamp; for Current in X. laevis oocytes (nA), D-isomer: D-amino acid 1 mM; for K0.5 (concentration inducing half-maximal current; Michaelis-Menten constant): oocytes, membrane potential −50 mV
mouse ATB^0,+ [3] = target: T1, mouse ATB^0,+
mouse ATB^0,+ [4] = target: T1, mouse ATB^0,+; assay: Transport of radiolabeled substrates in HRPE cells expressing cloned mouse ATB0,+; format: cell-based; settings: HRPE cells
mouse ATB^0,+ [5] = target: T1, mouse ATB^0,+; settings: for effect on ATB^0,+-mediated glycine transport (in words): glycine 10 μM, HRPE cells
ATB^0 = target: T2, ATB^0 (Homo sapiens, UniProt Q15758); assay: cell-based
T2 sequence (Q15758 1-541): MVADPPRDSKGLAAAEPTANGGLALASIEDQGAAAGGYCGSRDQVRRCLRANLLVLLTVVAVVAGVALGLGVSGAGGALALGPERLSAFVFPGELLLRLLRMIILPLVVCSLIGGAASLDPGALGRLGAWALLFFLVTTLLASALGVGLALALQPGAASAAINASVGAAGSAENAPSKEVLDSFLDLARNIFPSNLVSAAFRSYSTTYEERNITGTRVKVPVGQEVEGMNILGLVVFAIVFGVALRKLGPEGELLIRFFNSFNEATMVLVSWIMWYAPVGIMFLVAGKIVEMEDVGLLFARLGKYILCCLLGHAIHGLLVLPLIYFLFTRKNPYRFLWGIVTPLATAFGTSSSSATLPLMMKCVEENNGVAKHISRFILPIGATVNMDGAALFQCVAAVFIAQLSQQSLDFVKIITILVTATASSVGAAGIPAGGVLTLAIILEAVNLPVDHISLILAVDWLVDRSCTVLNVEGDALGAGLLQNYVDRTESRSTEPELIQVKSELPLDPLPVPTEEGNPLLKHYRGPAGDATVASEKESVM

## N=C(N)NCCC[C@H](N)C(=O)O [Arginine]
Mouse ATB^0,+ [1]
  inhibition of ATB^0,+-specific L-NNA transport: inhibition
Mouse ATB^0,+ [2]
  Current in X. laevis oocytes (nA), L-isomer: 339 ± 35 nA
  inward current in the absence of Cl− (sodium gluconate): No measurable current
  inward current in the absence of Na+ (NMDG chloride): No measurable current
  Current in X. laevis oocytes: 382 ± 57 nA
Mouse ATB^0,+ [3]
  activity: 30%

## NC(=O)C[C@H](N)C(=O)O [Asparagine, L-Asparagine]
Mouse ATB^0,+ [2]
  Current in X. laevis oocytes (nA), L-isomer: 394 ± 67 nA

## NC(=O)NCCC[C@H](N)C(=O)O [Citrulline]
Mouse ATB^0,+ [2]
  Current in X. laevis oocytes: 498 ± 114 nA

## C[C@@H](N)C(=O)O [D-Alanine, D-alanine]
Mouse ATB^0,+ [2]
  Current in X. laevis oocytes (nA), D-isomer: 402 ± 39 nA

## N=C(N)NCCC[C@H](N)C(=O)O [D-Arginine, Arginine]
Mouse ATB^0,+ [2]
  Current in X. laevis oocytes (nA), D-isomer: 6 ± 1 nA

## NC(=O)C[C@H](N)C(=O)O [D-Asparagine, Asparagine]
Mouse ATB^0,+ [2]
  Current in X. laevis oocytes (nA), D-isomer: 3 ± 2 nA

## NC(=O)CC[C@@H](N)C(=O)O [D-Glutamine, D-glutamine]
Mouse ATB^0,+ [2]
  Current in X. laevis oocytes (nA), D-isomer: 16 ± 11 nA

## N[C@H](Cc1c[nH]cn1)C(=O)O [D-Histidine, D-histidine]
Mouse ATB^0,+ [2]
  Current in X. laevis oocytes (nA), D-isomer: 29 ± 6 nA

## CC[C@H](C)[C@H](N)C(=O)O [D-Isoleucine, Isoleucine]
Mouse ATB^0,+ [2]
  Current in X. laevis oocytes (nA), D-isomer: 4 ± 4 nA

## CC(C)C[C@@H](N)C(=O)O [D-Leucine, D-leucine]
Mouse ATB^0,+ [2]
  Current in X. laevis oocytes (nA), D-isomer: 161 ± 25 nA

## NCCCC[C@H](N)C(=O)O [D-Lysine, Lysine]
Mouse ATB^0,+ [2]
  Current in X. laevis oocytes (nA), D-isomer: 9 ± 9 nA

## CSCC[C@@H](N)C(=O)O [D-Methionine, D-methionine]
Mouse ATB^0,+ [2]
  Current in X. laevis oocytes (nA), D-isomer: 213 ± 15 nA

## N[C@H](Cc1ccccc1)C(=O)O [D-Phenylalanine, D-phenylalanine]
Mouse ATB^0,+ [2]
  Current in X. laevis oocytes (nA), D-isomer: 24 ± 24 nA

## C[C@H](O)[C@@H](N)C(=O)O [D-Threonine, D-threonine]
Mouse ATB^0,+ [2]
  Current in X. laevis oocytes (nA), D-isomer: 41 ± 5 nA

## N[C@H](Cc1c[nH]c2ccccc12)C(=O)O [D-Tryptophan, D-tryptophan]
Mouse ATB^0,+ [2]
  Current in X. laevis oocytes (nA), D-isomer: 157 ± 23 nA

## CC(C)[C@H](N)C(=O)O [D-Valine, Valine]
Mouse ATB^0,+ [2]
  Current in X. laevis oocytes (nA), D-isomer: 4 ± 3 nA

## NC(=O)CC[C@H](N)C(=O)O [Glutamine, L-Glutamine]
Mouse ATB^0,+ [2]
  Current in X. laevis oocytes (nA), L-isomer: 453 ± 53 nA

## NCC(=O)O [Glycine]
Mouse ATB^0,+ [1]
  inhibition of ATB^0,+-specific L-NNA transport: inhibition
Mouse ATB^0,+ [4]
  Hill coefficient for Na+ activation of substrate transport: 2.0±0.1
  K0.5 for Cl− in substrate transport: 18 ± 8 mM
  K0.5 for Na+ in substrate transport: 25 ± 1 mM
  Michaelis-Menten constant (Kt) of transport via mouse ATB^0,+: 210 ± 18 µM
Mouse ATB^0,+ [4]; radiolabeled substrate
  transport in ATB^0,+ cDNA-transfected cells compared to vector-transfected cells: 38 fold and 30 fold

## N[C@@H](Cc1c[nH]cn1)C(=O)O [Histidine]
Mouse ATB^0,+ [2]
  Current in X. laevis oocytes (nA), L-isomer: 410 ± 64 nA

## CC[C@H](C)[C@H](N)C(=O)O [Isoleucine]
Mouse ATB^0,+ [2]
  Current in X. laevis oocytes (nA), L-isomer: 117 ± 16 nA

## N[C@@H](CC(=O)OCc1ccccc1)C(=O)O [L-Aspartate β-benzyl ester]
Mouse ATB^0,+ [5]
  IC50: 70 ± 8 µM
Mouse ATB^0,+ [5]; from IC50 values
  potency relative to benzyl ester of glutamate: about 2 fold

## N=C(N)NOCC[C@H](N)C(=O)O [L-Canavanine]
Mouse ATB^0,+ [2]
  Current in X. laevis oocytes: 269 ± 73 nA
Mouse ATB^0,+ [3]
  activity: 24%
  inhibition: 75%

## N[C@@H](CCC(=O)OCc1ccccc1)C(=O)O [L-Glutamate γ-benzyl ester]
Mouse ATB^0,+ [5]
  IC50: 156 ± 12 µM

## CSC(N)=NCCC[C@H](N)C(=O)O [L-MTC]
Mouse ATB^0,+ [2]
  inward current in the absence of Cl− (sodium gluconate): no measurable currents
  inward current in the absence of Na+ (NMDG chloride): no measurable currents
  Current in X. laevis oocytes: 116±34 nA and 118 ± 34 nA
  K0.5 (concentration inducing half-maximal current; Michaelis-Menten constant): 1.36 ± 0.08 mM

## CSCC[C@H](N)C(=O)O [L-Methionine, Methionine]
Mouse ATB^0,+ [2]
  Current in X. laevis oocytes (nA), L-isomer: 278 ± 26 nA

## NC(=NCCC[C@H](N)C(=O)OCc1ccccc1)N[N+](=O)[O-] [L-NABE]
Mouse ATB^0,+ [2]
  Current in X. laevis oocytes: 16 ± 2 nA

## COC(=O)[C@@H](N)CCCNC(=N)N[N+](=O)[O-] [L-NAME]
Mouse ATB^0,+ [2]
  Current in X. laevis oocytes: 11 ± 2 nA

## CN(C)C(N)=NCCC[C@H](N)C(=O)O [L-NDMA]
Mouse ATB^0,+ [2]
  Current in X. laevis oocytes: 85 ± 15 nA

## CC(=N)NCCCC[C@H](N)C(=O)O [L-NIL]
Mouse ATB^0,+ [2]
  inward current in the absence of Cl− (sodium gluconate): ~10 nA
  inward current in the absence of Na+ (NMDG chloride): no measurable inward current
  Current in X. laevis oocytes: 89 ± 18 nA
  K0.5 (concentration inducing half-maximal current; Michaelis-Menten constant): 2.72 ± 0.29 mM

## CC(=N)NCCC[C@H](N)C(=O)O [L-NIO]
Mouse ATB^0,+ [2]
  Current in X. laevis oocytes: 71 ± 16 nA
  K0.5 (concentration inducing half-maximal current; Michaelis-Menten constant): 2.24 ± 0.35 mM

## CCNC(=N)NCCC[C@H](N)C(=O)O [L-NMEA]
Mouse ATB^0,+ [2]
  Current in X. laevis oocytes: 138 ± 16 nA

## CNC(=N)NCCC[C@H](N)C(=O)O [L-NMMA]
Mouse ATB^0,+ [2]
  Current in X. laevis oocytes: 411 ± 76 nA
Mouse ATB^0,+ [3]
  activity: 36%

## N=C(NCCC[C@H](N)C(=O)O)N[N+](=O)[O-] [L-NNA, N^ω-nitro-L-arginine]
Mouse ATB^0,+ [2]
  Current in X. laevis oocytes: 200 ± 92 nA
Mouse ATB^0,+ [5]
  IC50: 560 ± 40 µM
Mouse ATB^0,+ [4]; radiolabeled substrate
  Michaelis-Menten constant (Kt) of transport via mouse ATB^0,+: 750 ± 100 µM
  transport in ATB^0,+ cDNA-transfected cells compared to vector-transfected cells: 4 fold
Mouse ATB^0,+ [3]
  activity: 21%

## NC(=S)NCCC[C@H](N)C(=O)O [L-TC]
Mouse ATB^0,+ [2]
  Current in X. laevis oocytes: 497 ± 104 nA

## CC(C)[C@H](N)C(=O)O [L-Valine, Valine]
Mouse ATB^0,+ [2]
  Current in X. laevis oocytes (nA), L-isomer: 310 ± 24 nA

## CC(C)C[C@H](N)C(=O)O [Leucine]
Mouse ATB^0,+ [2]
  Current in X. laevis oocytes (nA), L-isomer: 187 ± 14 nA

## NCCCC[C@H](N)C(=O)O [Lysine]
Mouse ATB^0,+ [2]
  Current in X. laevis oocytes (nA), L-isomer: 321 ± 34 nA
  Current in X. laevis oocytes: 545 ± 95 nA

## CNC(C)(C)C(=O)O [MeAIB]
Mouse ATB^0,+ [1]
  inhibition of ATB^0,+-specific L-NNA transport: did not inhibit

## NCCC[C@H](N)C(=O)O [Ornithine]
Mouse ATB^0,+ [2]
  Current in X. laevis oocytes: 131 ± 27 nA

## N[C@@H](Cc1ccccc1)C(=O)O [Phenylalanine]
Mouse ATB^0,+ [2]
  Current in X. laevis oocytes (nA), L-isomer: 275 ± 58 nA
Mouse ATB^0,+ [5]
  Ki: 68.6 ± 2.4 µM
ATB^0
  Ki: 4230 ± 999 µM

## N[C@@H](CO)C(=O)O [Serine]
Mouse ATB^0,+ [1]
  inhibition of ATB^0,+-specific L-NNA transport: inhibition
Mouse ATB^0,+ [2]
  Current in X. laevis oocytes (nA), L-isomer: 470 ± 42 nA

## C[C@@H](O)[C@H](N)C(=O)O [Threonine]
Mouse ATB^0,+ [2]
  Current in X. laevis oocytes (nA), L-isomer: 233 ± 12 nA

## N[C@@H](Cc1c[nH]c2ccccc12)C(=O)O [Tryptophan]
Mouse ATB^0,+ [2]
  Current in X. laevis oocytes (nA), L-isomer: 112 ± 4 nA

## C[N+](C)(C)CC(=O)O [betaine]
Mouse ATB^0,+ [5]
  effect on ATB^0,+-mediated glycine transport (in words): little or no effect

## CC(C)[C@H](N)C(=O)OCCOCn1cnc2c(=O)[nH]c(N)nc21 [valacyclovir, L-valine α-ester of acyclovir]
Mouse ATB^0,+ [4]; [14C]phenylglycine 10 μM or [8-3H]-valacyclovir 1.25 μM
  transport in ATB^0,+-expressing cells versus vector-transfected cells (in words): three times higher

## NCCCC(=O)O [γ-Aminobutyrate, γ-aminobutyrate]
Mouse ATB^0,+ [5]
  effect on ATB^0,+-mediated glycine transport (in words): little or no effect
